Source: patent publication US20170305922A1, “CARM1 INHIBITORS AND USES THEREOF” (Epizyme, Inc., priority 2014, published 2017)

What was measured:
Human CARM1 (PRMT4) = target: T1, Human CARM1 (PRMT4) (Homo sapiens, UniProt Q86X55); experiment: CARM1 enzyme assay on peptide substrates (3H-SAM Flashplate); conditions: Biochemical assay; CARM1 0.25 nM, 3H-SAM 30 nM, peptide 250 nM; read-out: Biochem IC50
T1 construct: Flag-CARM1-His was eluted with 200 ug/ml FLAG peptide in buffer A; made in house; host or cells: HEK 293F cells infected with recombinant baculovirus (pFastBacMam)
T1 sequence (Q86X55 1-585 isoform Q86X55-1): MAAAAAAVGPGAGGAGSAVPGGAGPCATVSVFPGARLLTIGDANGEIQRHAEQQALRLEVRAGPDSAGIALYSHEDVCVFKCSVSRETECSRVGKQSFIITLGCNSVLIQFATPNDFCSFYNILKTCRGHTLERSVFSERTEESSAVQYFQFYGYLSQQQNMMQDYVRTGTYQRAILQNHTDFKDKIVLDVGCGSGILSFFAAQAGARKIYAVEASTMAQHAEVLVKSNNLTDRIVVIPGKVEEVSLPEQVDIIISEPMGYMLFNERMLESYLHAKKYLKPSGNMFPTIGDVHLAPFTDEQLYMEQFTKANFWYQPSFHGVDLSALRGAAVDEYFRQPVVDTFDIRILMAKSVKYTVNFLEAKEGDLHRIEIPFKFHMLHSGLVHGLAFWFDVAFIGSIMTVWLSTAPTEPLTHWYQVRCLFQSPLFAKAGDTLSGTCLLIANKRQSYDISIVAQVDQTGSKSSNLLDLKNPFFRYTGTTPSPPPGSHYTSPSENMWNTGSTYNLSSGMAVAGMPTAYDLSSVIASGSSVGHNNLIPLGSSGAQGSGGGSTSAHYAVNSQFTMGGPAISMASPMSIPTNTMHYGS

[1] = system: asymmetric di-methyl PABP1 in RKO cells; experiment: RKO methylation assay: In Cell Western (ICW) for asymmetric di-methyl PABP1 (PABP1me2a); conditions: Cellular-based (PABP1me2a) ICW (In Cell Western) assay
Outline: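 In-cell western on compound-exposed RKO cells (48 hours): asymmetric di-methyl PABP1 detected by antibody at 800 nm, DNA content by DRAQ5 at 700 nm. Percent inhibition from signal ratios against DMSO (minimum) and 20 μM reference compound (maximum) wells; IC50 curves fitted from triplicates.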

IC50 (Human CARM1 (PRMT4)) [nM] | IC50 ([1]; Homo sapiens, RKO, 48 h) [nM] | IC50 ([1]; 48 hours) [nM] | SMILES
9.9 | 42 |  | CNC[C@@H](O)COc1ccc(Cl)c(-c2nc(-c3c(C)noc3C)c(C)c(N3CC4(CC(OC(C)C)C4)C3)n2)c1 [Example 133]
3.2 | 19 |  | CNC[C@@H](O)COc1ccc(Cl)c(-c2nc(-c3c(C)noc3C)c(C)c(N3Cc4cnc(OC)nc4C3)n2)c1 [Example 70]
2.1 | 56 |  | CNC[C@@H](O)COc1ccc(F)c(-c2nc(-c3c(C)noc3C)c(C)c(N3Cc4cnn(C5CC5)c4C3)n2)c1 [Example 16]
3.11 | 244 |  | CNC[C@@H](O)COc1ccc(Cl)c(-c2nc(-c3c(C)c(Br)nn3C)c(C)c(N3CC4(CN(CCC#N)C4)C3)n2)c1 [Example 298]
2.3 | 33 |  | CNC[C@@H](O)COc1ccc(Cl)c(-c2nc(-c3c(C)noc3C)c(C)c(N3Cc4ncnc(OC)c4C3)n2)c1 [Example 93]
3.8 | 113 |  | CNC[C@@H](O)COc1ccc(F)c(-c2nc(-c3c(C)noc3C)c(C)c(N3CC4(CCC(F)CC4)C3)n2)c1 [Example 56]
18.3 | 164 |  | CNC[C@@H](O)COc1ccc(Cl)c(-c2nc(-c3c(C)noc3C)c(C)c(N3CC4(CCN4CC(F)F)C3)n2)c1 [Example 108]
3.39 |  | 38.2 | CNC[C@@H](O)COc1ccc(Cl)c(-c2nc(-c3c(C)noc3C)c(C)c(N3CC4(CC(OCC(F)F)C4)C3)n2)c1 [Example 290]
5 | 116 |  | CNC[C@@H](O)COc1ccc(Cl)c(-c2nc(-c3c(C)c(Br)nn3C)c(C)c(N3CC4(CC(OC(F)(F)F)C4)C3)n2)c1 [Example 238]
4.7 | 101 |  | CNC[C@@H](O)COc1ccc(Cl)c(-c2nc(-c3c(C)noc3C)c(C)c(N3CC4(C3)CC(OC)(C(F)F)C4)n2)c1 [Example 217]
2.9 | 27 |  | CNC[C@@H](O)COc1ccc(Cl)c(-c2nc(-c3c(C)noc3C)c(C)c(N3Cc4cnc(C)cc4C3)n2)c1 [Example 44]
5 | 71 |  | CNC[C@@H](O)COc1ccc(Cl)c(-c2nc(-c3c(C)noc3C)c(C)c(N3CC4(CCC(F)(F)CC4)C3)n2)c1 [Example 67]
2.36 | 29.2 |  | CNC[C@@H](O)COc1ccc(Cl)c(-c2nc(-c3c(C)noc3C)c(C)c(N3Cc4ccc(O[C@@H]5CCOC5)nc4C3)n2)c1 [Example 253]
2.4 | 18 |  | CCOc1ncc2c(n1)CN(c1nc(-c3cc(OC[C@H](O)CNC)ccc3Cl)nc(-c3c(C)c(Cl)nn3C)c1C)C2 [Example 155]
1.7 | 13 |  | CCc1onc(C)c1-c1nc(-c2cc(OC[C@H](O)CNC)ccc2Cl)nc(N2Cc3cnc(N4CCC4)nc3C2)c1C [Example 175]
2.6 | 37 |  | CCc1cc2c(cn1)CN(c1nc(-c3cc(OC[C@H](O)CNC)ccc3Cl)nc(-c3c(C)noc3C)c1C)C2 [Example 37]
5.8 | 322 |  | CNC[C@@H](O)COc1ccc(Cl)c(-c2nc(-c3c(C)noc3C)c(C)c(N3CC4(CCC(C(=O)N5CCOCC5)CC4)C3)n2)c1 [Example 165]
5.95 |  | 45.5 | CNC[C@@H](O)COc1ccc(Cl)c(-c2nc(-c3c(C)noc3C)c(C)c(N3CC4(CC(OC(C)C)C4)C3)n2)c1 [Example 260]
2.31 | 140 |  | CNC[C@@H](O)COc1ccc(Cl)c(-c2nc(-c3c(C)c(C#N)nn3C)c(C)c(N3Cc4cncnc4C3)n2)c1 [Example 346]
17.4 | 35 |  | CNC[C@@H](O)COc1ccc(Cl)c(-c2nc(-c3c(C)noc3C)c(C)c(N3CC4(CCN(CC(F)(F)F)CC4)C3)n2)c1 [Example 46]
1.1 | 83 |  | CNC[C@@H](O)COc1cccc(-c2nc(-c3c(C)c(Cl)nn3C)c(C)c(N3Cc4cccnc4C3)n2)c1 [Example 85]
2 | 39 |  | CCN(C)c1ncc2c(n1)CN(c1nc(-c3cc(OC[C@H](O)CNC)ccc3Cl)nc(-c3c(C)c(Cl)nn3C)c1C)C2 [Example 159]
8.8 | 155 |  | CNC[C@@H](O)COc1ccc(Cl)c(-c2nc(-c3c(C)noc3C)c(C)c(N3CC4(CCN(C5COC5)C4)C3)n2)c1 [Example 50]
8.24 | 1470 |  | CNC[C@@H](O)COc1ccc(Cl)c(-c2nc(-c3c(C)noc3C)c(C)c(N3CC4(CN(CCC#N)C4)C3)n2)c1 [Example 277]

IC50 (Human CARM1 (PRMT4)) [nM] | IC50 ([1]; Homo sapiens, RKO, 48 h) [nM] | IC50 ([1]; 48 hours) [nM] | SMILES
4.98 | 60 |  | CNC[C@@H](O)COc1ccc(Cl)c(-c2nc(-c3c(C)noc3C)c(C)c(N3CC4(CCCN(CC(F)F)C4)C3)n2)c1 [Example 337]
2.7 | 26 |  | CCOC(=O)N1CC2=C(C1)CN(c1nc(-c3cc(OC[C@H](O)CNC)ccc3Cl)nc(-c3c(C)noc3C)c1C)C2 [Example 176]
1.1 | 46 |  | CCN(C)c1nccc2c1CN(c1nc(-c3cc(OC[C@H](O)CNC)ccc3Cl)nc(-c3c(C)noc3C)c1C)C2 [Example 214]
4.7 | 58 |  | CNC[C@@H](O)COc1ccc(Cl)c(-c2nc(-c3c(C)c(Cl)nn3C)c(C)c(N3CC4(CCN(C(=O)OC)CC4)C3)n2)c1 [Example 192]
5.7 | 76 |  | CNC[C@@H](O)COc1ccc(F)c(-c2nc(-c3c(C)noc3C)c(C)c(N3CC4(CCN(CC(F)F)C4)C3)n2)c1 [Example 38]
2.2 | 32 |  | CNC[C@@H](O)COc1ccc(Cl)c(-c2nc(-c3c(C)noc3C)c(C)c(N3Cc4nc(OC)nc(OC)c4C3)n2)c1 [Example 90]
11.9 | 40 |  | CNC[C@@H](O)COc1ccc(Cl)c(-c2nc(-c3c(C)noc3C)c(C)c(N3CC4(CCN(CC(F)(F)F)C4)C3)n2)c1 [Example 45]
0.7 | 54 |  | CNC[C@@H](O)COc1ccc(Cl)c(-c2nc(-c3c(C)noc3C)c(C)c(N3Cc4nccc(OCC(F)F)c4C3)n2)c1 [Example 235]
3.94 | 217 |  | CNC[C@@H](O)COc1ccc(Cl)c(-c2nc(-c3c(C)noc3C)c(C)c(N3CC4(CCC4(F)F)C3)n2)c1 [Example 250]
13.7 | 874 |  | CNC[C@@H](O)COc1cccc(-c2nc(-c3c(C)cnn3C)c(C)c(N3CC4(CCN(C(=O)OC)CC4)C3)n2)c1 [Example 61]
2.74 | 123 |  | CNC[C@@H](O)COc1ccc(Cl)c(-c2nc(-c3c(Cl)cnn3C)c(C)c(N3Cc4cnn(C)c4C3)n2)c1 [Example 342]
5.5 | 129 |  | CNC[C@@H](O)COc1ccc(Cl)c(-c2nc(-c3c(C)noc3C)c(C)c(N3CC4(CN(C(=O)OCC(F)(F)F)C4)C3)n2)c1 [Example 219]
6.1 | 105 |  | CNC[C@@H](O)COc1ccc(Cl)c(-c2nc(-c3c(C)noc3C)c(C)c(N3CC4(CCC(OC(F)(F)F)CC4)C3)n2)c1 [Example 234]
0.8 | 355 |  | CNC[C@@H](O)COc1ccc(Cl)c(-c2nc(-c3c(C)noc3C)c(C)c(N3CC4(CC(N5CC(OC)C5)C4)C3)n2)c1 [Example 269]
1.5 | 17 |  | CNC[C@@H](O)COc1ccc(Cl)c(-c2nc(-c3c(C)noc3C)c(C)c(N3Cc4ccc(N5CCC5)nc4C3)n2)c1 [Example 221]
7.22 | 377 |  | CNC[C@@H](O)COc1ccc(Cl)c(-c2nc(-c3c(C)noc3C)c(C)c(N3CC4(CN(C(=O)OCCOC)C4)C3)n2)c1 [Example 255]
5.1 | 119 |  | CCc1onc(C)c1-c1nc(-c2cc(OC[C@H](O)CNC)ccc2Cl)nc(N2CC3(CCN(C(=O)OC)CC3)C2)c1C [Example 179]
9 | 205 |  | CCn1ncc(C)c1-c1nc(-c2cc(OC[C@H](O)CNC)ccc2Cl)nc(N2CC3(CCN(C(=O)OC)CC3)C2)c1C [Example 87]
7.2 | 83 |  | CNC[C@@H](O)COc1ccc(Cl)c(-c2nc(-c3c(C)noc3C)c(C)c(N3CC4(CCN(C(=O)N(C)C)CC4)C3)n2)c1 [Example 33]
5.2 | 142 |  | CNC[C@@H](O)COc1ccc(Cl)c(-c2nc(-c3c(C)noc3C)c(C)c(N3CC4(C3)CC(OC)(C(F)(F)F)C4)n2)c1 [Example 208]
8 | 311 |  | CNC[C@@H](O)COc1ccc(Cl)c(-c2nc(-c3c(C)noc3C)c(C)c(N3C[C@@H]4C[C@H]3CN4CC(F)F)n2)c1 [Example 137]
1.8 | 13 |  | CNC[C@@H](O)COc1ccc(Cl)c(-c2nc(-c3c(C)noc3C)c(C)c(N3Cc4cnc(N5CC[C@H]5C)nc4C3)n2)c1 [Example 194]
7.8 | 32 |  | CNC[C@@H](O)COc1ccc(Cl)c(-c2nc(-c3c(C)noc3C)c(C)c(N3Cc4cnc(OCC(F)F)nc4C3)n2)c1 [Example 127]
